Patent US6143780A, “N-arylmethylthioanilide compounds useful for the inhibition of the replication of HIV” (Uniroyal Chemical Company, Inc., priority 1999, dated 2000)
Values after ≈ are worked out from the molar mass of the structure shown. Values joined by “and” are separate entries in the source; they are usually repeats but may differ in a detail not shown here. Equal values may be shown once. Read-outs that look alike come from different tables or passages of the source.

Assays:
Assay type in all cases: cell-based
[1] = test system: 103-Ala; assay: inhibition of syncytium formation in CEM cells, HIV-1 RT mutant 103-Ala; settings: Human immunodeficiency virus 1, CCRF-CEM, 96 h, read-out: EC50 103-Ala
[2] = test system: HIV-1/184-Ile; assay: inhibition of syncytium formation in CEM cells, HIV-1 RT mutant 184-Ile; settings: Human immunodeficiency virus 1, CCRF-CEM, 96 h, read-out: EC50 184-IIe
From the text: (§1) CEM cells were obtained from the American Tissue Cell Culture Collection (Rockville, Md.) . HIV-1 (IIIB) was originally obtained from the culture supernatant of persistently HIV-1-infected H9 cells and was provided by R. C. Gallo and M. Popovic (National Cancer Institute, National Institutes of Health, Bethesda, Md.).
(§2) The selection and characterization of the HIV-1 RT mutant strains were done as follows: HIV-1/100-Ile ("100-Ile") was selected for resistance against TIBO R82150 as described in Balzarini et al, Virology 192: 246-253 (1993); HIV-1/103-Asn ("103-Asn") was selected for resistance against TIBO R82913 as described in Balzarini et al, Virology 192: 246-253 (1993); HIV-1/106-Ala ("106-Ala") was selected for resistance against nevirapine as described in Balzarini et al, J. Virol. 67: 5353-5359 (1993); HIV-1/Lys-138 ("Lys-138") was selected for resistance against TSAO-m^3T as described in Balzarini et al, Virology 192: 246-253 (1993) and Balzarini et al, Proc. Nat. Acad. Sci. USA 90: 6952-6956 (1993); HIV-1/181-Cys ("181-Cys") was selected for resistance against pyridinone L-697,661 as described in Balzarini et al, Virology 192: 246-253 (1993); and HIV-1/188-His ("188-His") was selected for resistance against HEPT as described in Balzarini et al, Mol. Pharmocol. 44: 694-701 (1993). 188-His was then further converted to HIV-1/188-Leu ("188-Leu") upon further passage in cell culture in the absence of the HEPT. HIV-1/101-Glu ("101-Glu") and HIV-1/190-Glu ("190-Glu") were selected for resistance against the thiocarboxanilide derivative designated as UC38 as described in Balzarini et al, Antiviral Research 27: 219-236 (1995). HIV-1/184-Ile ("184-Ile") was selected for resistance against the combination of 3TC and TSAO-m^3 T as described in Balzarini et al, Molecular Pharm. 49: 882-890 (1996). HIV-1/184-Val ("184-Val") was selected for resistance against 3TC as described in Balzarini et al, Molecular Pharm. 49: 882-890 (1996).
(§3) CEM cells were suspended at ≈300,000 cells per ml of culture medium and infected with approximately 100 CCID50 (CCID50 being the 50% cell culture infective dose) of HIV-1(IIIB) (designated as "WT" in Table 3) or one of the HIV-1 RT mutant strains described above. Then 100 μl of the infected cell suspensions was added to 200 μl microtiter plate wells containing 100 μl of appropriate serial (5-fold) dilutions of the test compounds. The inhibitiory effect of the test compounds on HIV-1 induced syncytium formation in CEM cells was examined microscopically on day 4 post infection. The 50% effective concentration (EC50) was defined as the test compound concentration that inhibits syncytium formation in the HIV-1-infected cell cultures by 50%.

[3] = test system: HIV-1/184-Val; assay: inhibition of syncytium formation in CEM cells, HIV-1 RT mutant 184-Val; settings: Human immunodeficiency virus 1, CCRF-CEM, 96 h, read-out: EC50 184-Val
From the text: as §1, §2, §3

[4] = test system: HIV-1/100-Ile; assay: inhibition of syncytium formation in CEM cells, HIV-1 RT mutant 100-Ile; settings: Human immunodeficiency virus 1, CCRF-CEM, 96 h, read-out: EC50 100-Ile
From the text: as §1, §2, §3

[5] = test system: HIV-1/181-Cys; assay: inhibition of syncytium formation in CEM cells, HIV-1 RT mutant 181-Cys; settings: Human immunodeficiency virus 1, CCRF-CEM, 96 h, read-out: EC50 181-Cys
From the text: as §1, §2, §3

[6] = test system: HIV-1/101-Glu; assay: inhibition of syncytium formation in CEM cells, HIV-1 RT mutant 101-Glu; settings: Human immunodeficiency virus 1, CCRF-CEM, 96 h, read-out: EC50 101-Glu
From the text: as §1, §2, §3

[7] = test system: HIV-1/106-Ala; assay: inhibition of syncytium formation in CEM cells, HIV-1 RT mutant 106-Ala; settings: Human immunodeficiency virus 1, CCRF-CEM, 96 h, read-out: EC50 106-Ala
From the text: as §1, §2, §3

[8] = test system: HIV-1 (IIIB); assay: inhibition of HIV-1(IIIB) (WT) induced syncytium formation in CEM cells
From the text: as §1, §3

[9] = test system: HIV-1/188-Leu; assay: inhibition of syncytium formation in CEM cells, HIV-1 RT mutant 188-Leu; settings: Human immunodeficiency virus 1, CCRF-CEM, 96 h, read-out: EC50 188-Leu
From the text: as §1, §2, §3

[10] = test system: HIV-1/190-Glu; assay: inhibition of syncytium formation in CEM cells, HIV-1 RT mutant 190-Glu; settings: Human immunodeficiency virus 1, CCRF-CEM, 96 h, read-out: EC50 190-Glu
From the text: as §1, §2, §3

[11] = test system: 138-Lys; assay: inhibition of syncytium formation in CEM cells, HIV-1 RT mutant 138-Lys; settings: Human immunodeficiency virus 1, CCRF-CEM, 96 h, read-out: EC50 138-Lys
From the text: as §1, §2, §3

[12] = test system: HIV-1/188-His; assay: inhibition of syncytium formation in CEM cells, HIV-1 RT mutant 188-His; settings: Human immunodeficiency virus 1, CCRF-CEM, 96 h, read-out: EC50 188-His
From the text: as §1, §2, §3

[13] = Human immunodeficiency virus 1, IIIB, CCRF-CEM, 96 h, Table 3, HIV-1(IIIB), day 4 post infection, read-out: EC50 WT
[14] = Table 2, day 4 post infection, replicate values, read-out: EC50, Activity Against HIV-1 (IIIB)
[15] = Human immunodeficiency virus 1, IIIB, CCRF-CEM, 96 h, Table 2, day 4 post infection, replicate values, read-out: EC50, Activity Against HIV-1 (IIIB)

Structure (SMILES) | EC50 [1] | EC50 [2] | EC50 [3] | EC50 [4] | EC50 [5] | EC50 [6] | EC50 [7] | EC50 [8, 13] | EC50 [8, 14] | EC50 [9] | EC50 [10] | EC50 [11] | EC50 [12] | EC50 [8, 15]
Cc1occc1C(=S)Nc1ccc(Cl)c(COc2ccccc2Br)c1 [Compound 40] | > 2 µg/mL | 0.04 µg/mL | 0.018 µg/mL | 1.73 µg/mL | 0.75 µg/mL | 0.4 µg/mL | 0.85 µg/mL | 0.02 µg/mL | 35.3 nM and 46 nM and 16.8 nM | 0.7 µg/mL | > 2 µg/mL | 0.09 µg/mL | 0.4 µg/mL | 
Cc1occc1C(=S)Nc1ccc(Cl)c(COc2c(F)cccc2F)c1 [Compound 16] | 0.6 µg/mL (≈ 1.52 µM) | 0.011 µg/mL | 0.0036 µg/mL | 0.08 µg/mL | 0.03 µg/mL | 0.069 µg/mL | 0.03 µg/mL | 0.0031 µg/mL | 39.2 nM | 0.95 µg/mL | > 2 µg/mL | 0.018 µg/mL | 0.52 µg/mL | 28.6 nM
CCc1ccccc1OCc1cc(NC(=S)c2ccoc2C)ccc1Cl [Compound 44] | > 2 µg/mL | 0.04 µg/mL | 0.018 µg/mL | 0.41 µg/mL | > 2 µg/mL | 0.65 µg/mL | 1.1 µg/mL | 0.0065 µg/mL | 30.7 nM and 18 nM and 95.4 nM | 0.35 µg/mL | > 2 µg/mL | 0.16 µg/mL | 0.25 µg/mL | 
Cc1occc1C(=S)Nc1ccc(Cl)c(COc2ccccc2[N+](=O)[O-])c1 [Compound 19] | 0.52 µg/mL (≈ 1.29 µM) | 0.0045 µg/mL | 0.0041 µg/mL | 0.08 µg/mL | 0.13 µg/mL | 0.17 µg/mL | 0.13 µg/mL | 0.0023 µg/mL | 39.3 nM | 1.35 µg/mL | > 2 µg/mL | 0.0075 µg/mL | 0.12 µg/mL | 27.1 nM
CC(=O)OCc1ccccc1OCc1cc(NC(=S)c2ccoc2C)ccc1Cl [Compound 15] | > 2 µg/mL | 1.2 µg/mL | 0.5 µg/mL | > 2 µg/mL | > 2 µg/mL | > 2 µg/mL | > 2 µg/mL | 0.49 µg/mL |  | > 2 µg/mL | ≥ 2 µg/mL | > 2 µg/mL | > 2 µg/mL | 
Cc1occc1C(=S)Nc1ccc(Cl)c(COc2ccccc2CO)c1 [Compound 25] | > 2 µg/mL | 1 µg/mL | 0.25 µg/mL | > 2 µg/mL | > 2 µg/mL | > 2 µg/mL | > 2 µg/mL | 0.55 µg/mL | 3140 nM and 1090 nM and 1490 nM and 1150 nM and 1000 nM | > 2 µg/mL | > 2 µg/mL | > 2 µg/mL | > 2 µg/mL | 
Cc1ccccc1OCc1cc(NC(=S)c2ccoc2C)ccc1Cl [Compound 8] | 2 µg/mL (≈ 5.38 µM) | 0.065 µg/mL | 0.02 µg/mL | 0.33 µg/mL | 0.95 µg/mL | 1.5 µg/mL | 1 µg/mL | 0.022 µg/mL |  | 0.7 µg/mL | ≥ 2 µg/mL | 0.19 µg/mL | 0.5 µg/mL | 107 nM
Cc1occc1C(=S)Nc1ccc(Cl)c(COc2c(F)ccc(F)c2F)c1 [Compound 45] | 0.4 µg/mL (≈ 0.971 µM) | 0.005 µg/mL | 0.0027 µg/mL | 0.11 µg/mL | 0.065 µg/mL | 0.04 µg/mL | 0.025 µg/mL | 0.0017 µg/mL |  | 1.5 µg/mL | > 2 µg/mL | 0.012 µg/mL | 0.85 µg/mL | 
Cc1occc1C(=S)Nc1ccc(Cl)c(COc2ccc(F)cc2Cl)c1 [Compound 47] | > 2 µg/mL | 0.12 µg/mL | 0.05 µg/mL | 0.65 µg/mL | 1 µg/mL | 1.47 µg/mL | > 2 µg/mL | 0.018 µg/mL | 516 nM | > 2 µg/mL | > 2 µg/mL | 0.64 µg/mL | 2 µg/mL | 1030 nM
Cc1occc1C(=S)Nc1ccc(Cl)c(COc2cccc([N+](=O)[O-])c2)c1 [Compound 27] | > 2 µg/mL | 0.11 µg/mL | 0.4 µg/mL | 0.7 µg/mL | 0.5 µg/mL | 0.55 µg/mL | 1.57 µg/mL | 0.03 µg/mL | 121 nM and 340 nM | > 2 µg/mL | > 2 µg/mL | 0.23 µg/mL | > 2 µg/mL | 
